Read-outs that look alike come from different tables or passages of the source.
Experiments:
[1] = log P by HPLC on reversed-phase (C18) columns, OECD Guideline 117; assay type: physicochemical; details: for chromatographic logP: reversed-phase (C18) HPLC column
Description: The log P values were determined in accordance with OECD Guideline 117 (EC Directive 92/69/EEC) by HPLC (high-performance liquid chromatography) using reversed-phase (RP) columns (C18), by the following methods: [a] The LC-MS determination in the acidic range is carried out at pH 2.7 with 0.1% aqueous formic acid and acetonitrile (contains 0.1% formic acid) as eluents; linear gradient from 10% acetonitrile to 95% acetonitrile. [b] LC-MS determination in the neutral range is effected at pH 7.8 with 0.001 molar aqueous ammonium hydrogencarbonate solution and acetonitrile as eluents; linear gradient from 10% acetonitrile to 95% acetonitrile. Calibration is carried out using unbranched alkan-2-ones (having 3 to 16 carbon atoms) with known log P values (log P values determined on the basis of the retention times by linear interpolation between two successive alkanones).

[2] = test system: green peach aphid (Myzus persicae); experiment: Myzus persicae spray test (Chinese cabbage leaf discs); assay type: in vivo; details: application rate 500 g/ha, after 6 days, 100% = all aphids killed; for pest or weed control at 500 g/ha: Myzus persicae, foliar, 144 h, read-out: efficacy
Description: Myzus persicae—Spray Test Solvent: 78 parts by weight of acetone • • 1.5 parts by weight of dimethylformamide Emulsifier: alkylaryl polyglycol ether To produce a suitable active ingredient formulation, 1 part by weight of active ingredient is dissolved with the specified parts by weight of solvent and made up with water containing an emulsifier concentration of 1000 ppm until the desired concentration is attained. To produce further test concentrations, the formulation is diluted with emulsifier-containing water. Discs of Chinese cabbage leaves (Brassica pekinensis) infested by all stages of the green peach aphid (Myzus persicae) are sprayed with an active ingredient formulation of the desired concentration. After 6 days, the efficacy in % is determined. 100% means that all the aphids have been killed; 0% means that no aphids have been killed.

[3] = neutral range, pH 7.8, 0.001 molar aqueous ammonium hydrogencarbonate and acetonitrile
[4] = acidic range, pH 2.7, 0.1% aqueous formic acid and acetonitrile
[5] = acidic range, pH 2.7, 0.1% aqueous formic acid and acetonitrile, read-out: LogP[a]
[6] = neutral range, pH 7.8, 0.001 molar aqueous ammonium hydrogencarbonate and acetonitrile, read-out: logP[b]

Row | logP[b] [1, 3] | LogP[a] [1, 4] | chromatographic logP [1, 5] | chromatographic logP [1, 6] | SMILES | efficacy [2] | pest or weed control at 500 g/ha [2]
1 | 1.85 | 1.85 | – | – | CC[S+]([O-])c1ccc(-c2cnc3nc(-c4ccc[n+]([O-])c4)sc3c2)cc1 (stereo not shown) [Example 13] | 90% | –
2 | 3.68 | 3.74 | – | – | Cc1ccc(-c2cnc3nc(-c4cccnc4)sc3c2)cc1SCC(F)(F)F [Example 17] | 90% | –
3 | – | – | 3.97 | 3.95 | Cc1cc(C)c(-c2cnc3nc(-c4cccnc4)sc3c2)cc1SCC(F)(F)F [Example 19, 6-{2,4-Dimethyl-5-[(2,2,2-trifluoroethyl)sulphanyl]phenyl}-2-(pyridin-3-yl)[1,3]thiazolo[4,5-b]pyridine] | – | 100%
4 | – | – | – | 1.62 | c1cncc(-c2nc3ncc(-n4cccn4)cc3s2)c1 [Example 26, 6-(1H-Pyrazol-1-yl)-2-(pyridin-3-yl)[1,3]thiazolo[4,5-b]pyridine] | – | 90%
5 | – | – | 0.97 | 1.21 | Cc1nn(-c2cnc3nc(-c4cccnc4)sc3c2)c(=S)n1C [Example 31, 4,5-Dimethyl-2-[2-(pyridin-3-yl)[1,3]thiazolo[4,5-b]pyridin-6-yl]-2,4-dihydro-3H-1,2,4-triazole-3-thione] | – | 90%

The remaining lines, values behind:

Row | SMILES | logP[b] [1, 3] | LogP[a] [1, 4] | chromatographic logP [1, 5] | chromatographic logP [1, 6] | efficacy [2] | pest or weed control at 500 g/ha [2]
6 | CSc1cccc(-c2cnc3nc(-c4cccnc4)sc3c2)c1 [Example 9] | 2.96 | – | – | – | 100% | –
7 | CC[S+]([O-])c1ccccc1-c1cnc2nc(-c3ccc[n+]([O-])c3)sc2c1 (stereo not shown) [Example 16, 6-[2-(Ethylsulphinyl)phenyl]-2-(1-oxidopyridin-3-yl)[1,3]thiazolo[4,5-b]pyridine] | – | – | 1.86 | 1.87 | – | 90%
8 | Cc1ccc(-c2cnc3nc(-c4cccnc4)sc3c2)cc1[S+]([O-])CC(F)(F)F (stereo not shown) [Example 18] | 2.34 | 2.4 | – | – | 90% | –
9 | Cc1cc(C)c([S+]([O-])CC(F)(F)F)cc1-c1cnc2nc(-c3cccnc3)sc2c1 (stereo not shown) [Example 20, 6-{2,4-Dimethyl-5-[(2,2,2-trifluoroethyl)sulphinyl]phenyl}-2-(pyridin-3-yl)[1,3]thiazolo[4,5-b]pyridine] | – | – | 2.54 | 2.52 | – | 90%
10 | Cc1cc(F)c(-c2cnc3nc(-c4cccnc4)sc3c2)cc1[S+]([O-])CC(F)(F)F (stereo not shown) [Example 23, 6-{2-Fluoro-4-methyl-5-[(2,2,2-trifluoroethyl)sulphinyl]phenyl}-2-(pyridin-3-yl)[1,3]thiazolo[4,5-b]pyridine] | – | – | 2.5 | 2.46 | – | 90%
11 | Clc1cccc(Nc2cnc3nc(-c4cccnc4)sc3c2)c1 [Example 25, N-(3-Chlorophenyl)-2-(pyridin-3-yl)[1,3]thiazolo[4,5-b]pyridin-6-amine] | – | – | 2.66 | 2.69 | – | 90%
12 | Cc1nn(-c2cnc3nc(-c4cccnc4)sc3c2)c(=O)n1C [Example 30, 4,5-Dimethyl-2-[2-(pyridin-3-yl)[1,3]thiazolo[4,5-b]pyridin-6-yl]-2,4-dihydro-3H-1,2,4-triazol-3-one] | – | – | 1.23 | 1.42 | – | 100%
